In ChEMBL document CHEMBL3507680, “University of Dundee, Gates Library screen for HepG2 cell viability”:

Assay: Human HepG2 cell viability assay in 384 well format
Format: toxicity, cell-based
Set-up: dose 125 nL, time 70.5 hour; cytotoxicity at 70.5 h: concentration not given beside the values
Conditions: HepG2 cells, read-out: Inhibition
`COc1ccc(CN2C[C@@H](N(C)Cc3ccco3)[C@H]3OCCC[C@H]32)cc1` gave a cytotoxicity at 70.5 h of -8.22%.
Work on `CN(CCCO)Cc1cc(Cl)ccc1OCC(O)CN1CCCCCC1` (stereo not given) yielded a cytotoxicity at 70.5 h of -7.24%.
With `CCN1CC(C(=O)N(C)Cc2cc3cc(F)ccc3[nH]2)CC1=O` (stereo not given) the cytotoxicity at 70.5 h was -0.954%.
Compound `Cc1ccc(C(=O)Nc2cn[nH]c2)cc1F` has a cytotoxicity at 70.5 h of 13.5%.
For `CCC(CC)(CCCNC(=O)c1c(C)noc1C)C1OCCO1`, the cytotoxicity at 70.5 h was -5.03%.
`COCCC(=O)Nc1ccnc(Oc2ccccc2)c1` showed a cytotoxicity at 70.5 h of 2.24%.
Work on `CN(C)C(=O)CN1CCC2(C1)CN(CC1CCOCC1)C2` yielded a cytotoxicity at 70.5 h of -2.25%.
In the case of `Cc1nn(C)c2cnn(Cc3ccc(C(=O)NC4CC4)cc3)c12`, the cytotoxicity at 70.5 h is reported as -5.97%.
For `O=C(CCc1cc2n(n1)CCCN(Cc1ccccc1F)C2)NC1CC1`, the cytotoxicity at 70.5 h was 0.504%.
`COc1ccccc1CC(C)CC(=O)O` (stereo not given) gave a cytotoxicity at 70.5 h of -11.2%.
`CC(C)N(CC(N)=O)Cc1cccc(C(F)(F)F)c1` showed a cytotoxicity at 70.5 h of -1.84%.
`CCN1CC2(CC1=O)CN(C(C)=O)CCN(C(=O)NC(C)C)C2` (stereo not given) gave a cytotoxicity at 70.5 h of -8.93%.
With `CC(C)CCn1cc(C(C(=O)O)N2CCC(c3ccncc3)CC2)cn1` (stereo not given) the cytotoxicity at 70.5 h was 19.8%.
In the case of `Cc1cnc(-c2nc(C3CCN(Cc4ccccc4C)CC3)no2)cn1`, the cytotoxicity at 70.5 h is reported as -8.63%.
Work on `Cc1nn(C)c2ncc(S(=O)(=O)N3CCCN4CCCC4C3)cc12` (stereo not given) yielded a cytotoxicity at 70.5 h of -2.09%.
Work on `Cc1nc(-c2ccncc2)ncc1C(C)NC(=O)CN1CCCC1=O` (stereo not given) yielded a cytotoxicity at 70.5 h of -5.92%.
`c1cnc(N2CCC3(CCCN(CC4CCCCC4)C3)C2)cn1` (stereo not given) showed a cytotoxicity at 70.5 h of -11.2%.
In the case of `Cc1ncc(CN(C)C(=O)Nc2cccc(N3CCNC3=O)c2)s1`, the cytotoxicity at 70.5 h is reported as -3.19%.
`Cc1cnc(C(=O)N2C[C@H]3CCCC(OCc4cccnc4)[C@H]3C2)cn1` (stereo not given in full) gave a cytotoxicity at 70.5 h of -3.45%.
`CCN(Cc1ccc(C#N)cc1F)C(=O)CN(C)CC(N)=O` gave a cytotoxicity at 70.5 h of -4.58%.
`c1ccc2c(NCC3(N4CCOCC4)CCSC3)ncnc2c1` (stereo not given) gave a cytotoxicity at 70.5 h of 2.49%.
`Cc1n[nH]cc1CNC(=O)CCCc1cccs1` gave a cytotoxicity at 70.5 h of -3.35%.
Work on `CS(=O)(=O)N1CCO[C@H]2[C@@H](Oc3ncccc3F)CC[C@@H]21` yielded a cytotoxicity at 70.5 h of -5.41%.
Work on `O=C(N[C@@H]1C[C@H]2CC[C@@H]1C2)C1(Oc2ccc(Cl)cc2)CCNCC1` yielded a cytotoxicity at 70.5 h of -2.25%.
`CSc1ccccc1NC(=O)CCC(=O)N(C)C1CCN(C)CC1` showed a cytotoxicity at 70.5 h of -0.551%.
With `CC(=O)NCCCNC(=O)N1CCN(c2cc(F)ccc2F)CC1` the cytotoxicity at 70.5 h was -6.3%.
`Cc1noc(C)c1CN(C)C(=O)NC1CCN(c2ncccn2)CC1` showed a cytotoxicity at 70.5 h of 35.3%.
For `CCOc1ncccc1CNC(=O)N1CCCC1c1ccncc1` (stereo not given), the cytotoxicity at 70.5 h was -8.99%.
Work on `Cc1ccc(CC2COCCN(S(=O)(=O)c3ccccc3)C2)nc1` (stereo not given) yielded a cytotoxicity at 70.5 h of -0.967%.
`CCOc1ccc2ccccc2c1CNCC1CCS(=O)(=O)C1` (stereo not given) showed a cytotoxicity at 70.5 h of -3.67%.
Work on `N#Cc1cccc(CNc2ccc(F)cc2OCCO)c1` yielded a cytotoxicity at 70.5 h of -6.47%.
With `Cc1ccc(=O)n(Cc2nc(C(C)OCC(C)C)no2)n1` (stereo not given) the cytotoxicity at 70.5 h was 3.26%.
Compound `Cc1cccc(NC(=O)CCC(=O)NCC(=O)c2ccccc2F)c1` has a cytotoxicity at 70.5 h of 2.08%.
With `CN(C)C(CNCc1nc(-c2ccsc2)no1)c1cccc(F)c1` (stereo not given) the cytotoxicity at 70.5 h was -10.2%.
`CC(C)c1cc(C(=O)N2CCCC(Cn3cc(CO)nn3)C2)on1` (stereo not given) gave a cytotoxicity at 70.5 h of -2.32%.
`c1cncc(CNc2ccc3nc(C4CCNCC4)nn3c2)c1` gave a cytotoxicity at 70.5 h of -4.24%.
In the case of `COc1ccc(C2OC(COc3ccc(C)cc3)=NN2C(C)=O)cc1` (stereo not given), the cytotoxicity at 70.5 h is reported as 0.8%.
Compound `CC(C)CC(NC(=O)OC(C)(C)C)C(N)=O` (stereo not given) has a cytotoxicity at 70.5 h of 20.5%.
In the case of `O=C(N1CCOCC1)[C@@]12CCO[C@@H]1CCN(C1CCC1)C2`, the cytotoxicity at 70.5 h is reported as 46%.
With `N[C@H]1CN(C(=O)CCCc2ccc(F)cc2)C[C@@H]1C1CC1` the cytotoxicity at 70.5 h was -6.92%.
With `Cc1cc(CCC(=O)N2CC[C@H](O)C2)ccc1Br` the cytotoxicity at 70.5 h was 1.1%.
In the case of `Cc1ncsc1CN1C[C@@H](OCc2ccccn2)[C@H]2OCCC[C@H]21`, the cytotoxicity at 70.5 h is reported as 7.35%.
With `Cc1cc(N2CCC(c3ncc[nH]3)CC2)nc(N)n1` the cytotoxicity at 70.5 h was -2.19%.
Work on `Cc1c(S(=O)(=O)N2CCCC2c2nnc(-c3ccsc3)o2)cnn1C` (stereo not given) yielded a cytotoxicity at 70.5 h of 0.227%.
Work on `Cc1cccc(-c2nc(CN3CCc4cncnc4C3)no2)c1` yielded a cytotoxicity at 70.5 h of -4.67%.
